In patent publication US20260049105A1, “SELECTIVE MC4R LIGAND FOR TREATING OBESITY AND COGNITIVE LOSS” (ARIZONA BOARD OF REGENTS ON BEHALF OF THE UNIVERSITY OF …, priority 2022, published 2026):

Legend:
hMC4R [1] = target: T1, hMC4R (Homo sapiens, UniProt P32245); assay: Competitive receptor binding assay, whole HEK293 cells, 125I-NDP-α-MSH; details: hM4CR; for inhibition at 10 µM: 40 min, percentage of [125I]NDP-α-MSH displacement at 10 μM, read-out: BE%
T1 construct: expressed in transfected cells; host or cells: HEK293
Method: (§1) Competition binding experiments were performed on whole cells. The transfected HEK293 cell line with hMC4Rs were seeded on 96 well plates, 48 hours before the assay, 100,000 cells/well. For the assay, the medium was removed and cells were washed twice with a freshly prepared binding buffer containing 100% minimum essential medium with Earle's salt (MEM, GIBCO), 25 mM HEPES (pH 7.4), 0.2% bovine serum albumin, 1 mM 1,10-phenanthroline, 0.5 mg/L leupeptin, and 200 mg/L bacitracin. […] The medium was subsequently removed and each well was washed twice with the assay buffer. The cells are lysed by the addition of 250 μL of 0.1 NaOH and 250 μL of 1% Triton X-100. […] Data were analyzed using Graphpad Prism 6.0 (Graphpad Software, San Diego, CA).
IC50 and EC50 values represent the mean of duplicate experiments performed in triplicate. IC50 and EC50 estimates and their associated standard errors were determined by fitting the data using nonlinear least-squares analysis, with the help of Graphpad Prism 6.0 (Graphpad Software, San Diego, CA). […]

hMC4R [2] = target: T1, hMC4R; assay: Adenylate cyclase (cAMP) assay in transfected HEK293 cells; type: cell-based; details: HEK293, 0.05 h; hM4CR; percentage of cAMP produced at 10 μM in relation to MT-II; read-out: Act%
Method: The cells were seeded on 96 well plates 48 hours before the assay, (100,000 cells/well). For the assay, the medium was removed and cells were rinsed with 1 mL of MEM buffer (GIBCO) or with Earle's balanced salt solution (EBSS, GIBCO). An aliquot (0.4 mL) of Earle's balanced salt solution was placed in each well along with isobutylmethylxanthine (IBMX; 5 μL; 0.5 mM) for 1 minute at 37° C. Varying concentrations of melanotropins (0.1 mL) were added and the cells incubated for 3 minutes at 37° C. The reaction was stopped by aspirating the buffer and adding ice-cold Tris/EDTA buffer to each well (0.15 mL). The 96 well plates were covered and placed on ice. After dislodging the cells, the plates were placed in a boiling water bath for 15 minutes. The cell lysate was then centrifuged for 10 minutes (4000 rpm), and 50 μL of the supernatant was aliquoted into perkinElmer glass fiber filter plate. cAMP content was measured by competitive binding assay in addition to 50 μL H^3 cAMP and 100 μL PKA. Then the system was placed on ice for 2 hours and then vacuum and filtered. 100 μL of the OptiPhase Supermix scintillation fluid was added to the plate. The plates stayed for 8 hours and then read by MicroBeta radiation plate reader. IC50 and EC50 values represent the mean of duplicate experiments performed in triplicate. […] NA indicates 0% cAMP accumulation observed at 10 μM. The peptides were tested over a range of concentrations from 10^-10 to 10^-5 M.

hMC1R [3] = target: T2, hMC1R (Homo sapiens, UniProt Q01726); assay: Competitive receptor binding assay, whole HEK293 cells, 125I-NDP-α-MSH; details: 40 min; hM1CR; percentage of NDP-α-MSH displacement at 10 μM; read-out: BE %
T2 construct: expressed in transfected cells; host or cells: HEK293
Method: [The procedure below names another target; the source lists this target under the same test.] (§2) Competition binding experiments were performed on whole cells. The transfected HEK293 cell line with hMC4Rs were seeded on 96 well plates, 48 hours before the assay, 100,000 cells/well. For the assay, the medium was removed and cells were washed twice with a freshly prepared binding buffer containing 100% minimum essential medium with Earle's salt (MEM, GIBCO), 25 mM HEPES (pH 7.4), 0.2% bovine serum albumin, 1 mM 1,10-phenanthroline, 0.5 mg/L leupeptin, and 200 mg/L bacitracin. […] The medium was subsequently removed and each well was washed twice with the assay buffer. The cells are lysed by the addition of 250 μL of 0.1 NaOH and 250 μL of 1% Triton X-100. The lysed cell was transferred to the 12×75 mm glass tubes and the radioactivity was measured by Wallac 1470 WIZARD Gamma Counter. Data were analyzed using Graphpad Prism 6.0 (Graphpad Software, San Diego, CA).
(§3) IC50 and EC50 values represent the mean of duplicate experiments performed in triplicate. IC50 and EC50 estimates and their associated standard errors were determined by fitting the data using nonlinear least-squares analysis, with the help of Graphpad Prism 6.0 (Graphpad Software, San Diego, CA).
(§4) NA indicates 0% cAMP accumulation observed at 10 μM. The peptides were tested over a range of concentrations from 10^-10 to 10^-5 M.

hMC3R [4] = target: T3, hMC3R (Homo sapiens, UniProt P41968); assay: as above; details: 40 min; hM3CR; percentage of NDP-α-MSH displacement at 10 μM; read-out: BE %
T3 construct: expressed in transfected cells; host or cells: HEK293
Method: [The procedure below names another target; the source lists this target under the same test.] as §2, §3, §4

hMC5R [5] = target: T4, hMC5R (Homo sapiens, UniProt P33032); assay: as above; details: 40 min; hM5CR; percentage of NDP-α-MSH displacement at 10 μM; read-out: BE %
T4 construct: expressed in transfected cells; host or cells: HEK293
Method: [The procedure below names another target; the source lists this target under the same test.] as §1, §3, §4

hMC1R [6] = target: T2, hMC1R; assay: Adenylate cyclase (cAMP) assay in transfected HEK293 cells; type: cell-based; details: HEK293, 0.05 h; hM1CR; cAMP at 10 μM in relation to MT-II; read-out: Act %
Method: (§5) HEK293 cells transfected with human melanocortin receptors were grown to confluence in MEM medium (GIBCO) containing 10% fetal bovine serum, 100 units/mL penicillin and streptomycin, and 1 mM sodium pyruvate. The cells were seeded on 96 well plates 48 hours before the assay, (100,000 cells/well). For the assay, the medium was removed and cells were rinsed with 1 mL of MEM buffer (GIBCO) or with Earle's balanced salt solution (EBSS, GIBCO). An aliquot (0.4 mL) of Earle's balanced salt solution was placed in each well along with isobutylmethylxanthine (IBMX; 5 μL; 0.5 mM) for 1 minute at 37° C. Varying concentrations of melanotropins (0.1 mL) were added and the cells incubated for 3 minutes at 37° C. The reaction was stopped by aspirating the buffer and adding ice-cold Tris/EDTA buffer to each well (0.15 mL). The 96 well plates were covered and placed on ice. After dislodging the cells, the plates were placed in a boiling water bath for 15 minutes. The cell lysate was then centrifuged for 10 minutes (4000 rpm), and 50 μL of the supernatant was aliquoted into perkinElmer glass fiber filter plate. cAMP content was measured by competitive binding assay in addition to 50 μL H^3 cAMP and 100 μL PKA. Then the system was placed on ice for 2 hours and then vacuum and filtered. 100 μL of the OptiPhase Supermix scintillation fluid was added to the plate. The plates stayed for 8 hours and then read by MicroBeta radiation plate reader.
as §3, §4

hMC3R [7] = target: T3, hMC3R; assay: as above; type: cell-based; details: hM3CR; for Emax at 10 µM: HEK293, 0.05 h, cAMP at 10 μM in relation to MT-II, read-out: Act %
Method: as §5, §3, §4

hMC5R [8] = target: T4, hMC5R; assay: as above; type: cell-based; details: hM5CR; for Emax at 10 µM: HEK293, 0.05 h, cAMP at 10 μM in relation to MT-II, read-out: Act %
Method: as §5, §3, §4

hMC4R [9] = target: T1, hMC4R; assay: as above; type: cell-based; details: hM4CR; 50% maximal intracellular cAMP accumulation, N=4

T3 sequence (P41968 whole entry): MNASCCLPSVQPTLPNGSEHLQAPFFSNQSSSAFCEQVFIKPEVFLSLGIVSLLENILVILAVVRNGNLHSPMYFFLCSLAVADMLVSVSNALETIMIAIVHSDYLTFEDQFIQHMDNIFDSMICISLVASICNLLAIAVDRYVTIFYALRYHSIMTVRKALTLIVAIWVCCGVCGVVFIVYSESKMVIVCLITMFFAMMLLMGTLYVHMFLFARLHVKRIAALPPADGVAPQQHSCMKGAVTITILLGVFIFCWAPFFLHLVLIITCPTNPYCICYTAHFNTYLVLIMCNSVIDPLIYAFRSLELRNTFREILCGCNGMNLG
T4 sequence (P33032 whole entry): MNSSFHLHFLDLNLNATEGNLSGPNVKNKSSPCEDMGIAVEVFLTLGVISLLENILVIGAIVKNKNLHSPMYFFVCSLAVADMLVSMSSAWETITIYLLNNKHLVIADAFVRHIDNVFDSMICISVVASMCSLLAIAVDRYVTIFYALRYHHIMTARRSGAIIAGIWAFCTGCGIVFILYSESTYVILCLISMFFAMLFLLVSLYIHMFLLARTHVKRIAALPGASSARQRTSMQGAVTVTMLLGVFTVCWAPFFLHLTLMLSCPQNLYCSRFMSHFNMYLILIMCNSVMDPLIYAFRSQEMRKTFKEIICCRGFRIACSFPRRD
T1 sequence (P32245 whole entry): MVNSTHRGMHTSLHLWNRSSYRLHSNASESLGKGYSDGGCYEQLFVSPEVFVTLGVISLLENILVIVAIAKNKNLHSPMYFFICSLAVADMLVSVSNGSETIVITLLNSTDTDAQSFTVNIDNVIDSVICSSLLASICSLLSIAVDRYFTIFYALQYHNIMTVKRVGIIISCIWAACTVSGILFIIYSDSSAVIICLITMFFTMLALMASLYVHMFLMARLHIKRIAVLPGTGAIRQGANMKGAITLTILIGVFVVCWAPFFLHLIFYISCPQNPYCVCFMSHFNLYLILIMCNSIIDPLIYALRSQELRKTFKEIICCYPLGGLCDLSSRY
T2 sequence (Q01726 whole entry): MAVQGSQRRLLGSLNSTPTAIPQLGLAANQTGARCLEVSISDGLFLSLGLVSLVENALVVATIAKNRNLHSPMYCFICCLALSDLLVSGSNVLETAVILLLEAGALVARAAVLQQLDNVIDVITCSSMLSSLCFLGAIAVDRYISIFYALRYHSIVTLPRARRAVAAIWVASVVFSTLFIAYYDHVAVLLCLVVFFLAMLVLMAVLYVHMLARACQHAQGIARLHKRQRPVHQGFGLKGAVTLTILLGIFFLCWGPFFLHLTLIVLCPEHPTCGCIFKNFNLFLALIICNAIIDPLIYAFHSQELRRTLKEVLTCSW

inhibition at 10 µM (hMC4R [1]) [%] | Emax at 10 µM (hMC4R [2]) [%] | inhibition at 10 µM (hMC1R [3]) [%] | inhibition at 10 µM (hMC3R [4]) [%] | inhibition at 10 µM (hMC5R [5]) [%] | Emax at 10 µM (hMC1R [6]) [%] | Emax at 10 µM (hMC3R [7]) [%] | Emax at 10 µM (hMC5R [8]) [%] | EC50 (hMC4R [9]) [nM] | IC50 (hMC4R [1]; concentration of peptide at 50% specific binding, N=4) [nM] | EC50 (hMC3R [7]; cAMP accumulation, N=4) [nM] | EC50 (hMC5R [8]; cAMP accumulation, N=4) [nM] | SMILES
0 | 63 | 100 | 60 | 66 | 88 | 88 | 95 | > 1000 | – | – | – | CC(=O)N[C@@H](CCCNC(=N)N)C(=O)N[C@H]1CC(=O)NCCCC[C@@H](C(N)=O)NC(=O)C[C@H](Cc2c[nH]c3ccccc23)NC(=O)[C@H](CCCNC(=N)N)NC(=O)[C@@H](Cc2ccccc2)NC(=O)[C@@H]2CCCCN2C1=O [compound 1, Ac-Arg-cyclo[Asp-Pip-D-Phe-Arg-BTrp-Lys]-NH2]
23 | 84 | 100 | 100 | 0 | 100 | 59 | 62 | > 1000 | > 1000 | > 1000 | > 1000 | CC(=O)N[C@@H](CCCNC(=N)N)C(=O)N[C@H]1CC(=O)NCCCC[C@@H](C(N)=O)NC(=O)[C@H](Cc2c[nH]c3ccccc23)NC(=O)C[C@H](CCCNC(=N)N)NC(=O)[C@@H](Cc2ccc(F)cc2)NC(=O)[C@@H]2CCCCN2C1=O [compound 5, Ac-Arg-cyclo[Asp-Pip-D-Phe(4-F)-βArg-Trp-Lys]-NH2]
